From US4820834A, “Benzodiazepine analogs” (priority 1987, dated 1989)
Where two headings read alike, the source gives them in different places.

Assays:
CCK receptor (pancreas) = target: T1, CCK receptor (pancreas) (Rattus norvegicus, UniProt P30551); assay: CCK Receptor Binding (Pancreas): inhibition of ^125 I-CCK-33 binding; parameters: species or system Male Sprague-Dawley rats; conditions: rat pancreas membranes, ^125 I-CCK-33, 37° C., 30 minutes
T1 construct: The whole pancreas was dissected free of fat tissue and was homogenized; from tissue; host or cells: rat pancreas membranes (Sprague-Dawley)
T1 sequence (P30551 1-444): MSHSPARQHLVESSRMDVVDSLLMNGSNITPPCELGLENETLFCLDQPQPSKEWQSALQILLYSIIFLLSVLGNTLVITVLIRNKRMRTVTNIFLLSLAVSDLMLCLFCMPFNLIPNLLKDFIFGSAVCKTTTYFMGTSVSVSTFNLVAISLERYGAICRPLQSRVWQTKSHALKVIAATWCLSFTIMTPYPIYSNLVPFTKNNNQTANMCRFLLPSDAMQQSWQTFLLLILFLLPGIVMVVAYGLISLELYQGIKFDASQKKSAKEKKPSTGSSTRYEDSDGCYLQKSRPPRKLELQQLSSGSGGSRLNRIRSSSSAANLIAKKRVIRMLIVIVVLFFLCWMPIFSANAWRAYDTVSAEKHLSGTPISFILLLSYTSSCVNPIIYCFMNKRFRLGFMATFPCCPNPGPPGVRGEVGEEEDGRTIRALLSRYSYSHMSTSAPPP
In short: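 Bound ^125I-CCK-33 was counted in pellets after a 30 min, 37° C incubation followed by centrifugation. Membranes came from male Sprague-Dawley rat pancreas, assayed in Tris HCl pH 7.7 containing DTT, bacitracin, PMSF and o-phenanthroline. For Scatchard analysis, tracer was diluted with rising unlabelled CCK-33.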

[1] = target: T2, CCK receptor (brain, cerebral cortex) (Cavia porcellus, UniProt H0VZC5); assay: biochemical; assay type: binding, Male Hartley guinea pigs
T2 construct: Cerebral cortex was dissected and used as a receptor source; from tissue; host or cells: guinea pig cerebral cortex membranes (male Hartley)
T2 sequence (H0VZC5 1-426): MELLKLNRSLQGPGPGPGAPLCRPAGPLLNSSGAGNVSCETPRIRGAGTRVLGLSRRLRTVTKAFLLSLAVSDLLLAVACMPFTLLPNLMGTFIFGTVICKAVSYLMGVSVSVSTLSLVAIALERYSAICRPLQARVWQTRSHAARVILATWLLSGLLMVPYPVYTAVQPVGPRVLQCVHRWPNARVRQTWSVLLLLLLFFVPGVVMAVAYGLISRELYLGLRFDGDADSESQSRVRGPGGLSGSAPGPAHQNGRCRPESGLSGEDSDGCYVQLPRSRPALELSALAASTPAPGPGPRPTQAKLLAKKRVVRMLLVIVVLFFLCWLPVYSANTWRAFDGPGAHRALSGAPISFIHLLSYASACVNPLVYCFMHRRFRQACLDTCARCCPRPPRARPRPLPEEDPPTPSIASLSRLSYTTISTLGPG
In short: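 Binding of [radiolabeled] CCK-33 measured by gamma counting of centrifuged pellets after 2 h at 25°C. Membranes came from guinea pig brain cortex, suspended in 10 mM HEPES, 5 mM MgCl2, 1 mM EGTA, 0.25 mg/ml bacitracin, 0.4% BSA.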

[2] = target: T3, Gastrin receptor (gastric glands) (Cavia porcellus, UniProt H0VZC5); assay: Gastrin Receptor Binding in Guinea Pig Gastric Glands; parameters: species or system guinea pig (male Hartley); conditions: 25° C., 30 minutes
T3 construct: The washed guinea pig gastric glands prepared as above were resuspended; from tissue; host or cells: guinea pig gastric mucosal glands (male Hartley)
T3 sequence (H0VZC5 1-426): T2 sequence (H0VZC5 1-426)

[3] = read-out: IC50 ^125 I-CCK Pancreas
[4] = read-out: IC50 ^125 I-CCK Brain; guinea pig cerebral cortex, ^125 I-CCK-33, 25° C., 2 hours
[5] = ^125 I-gastrin, read-out: IC50 ^125 I-Gastrin Gastric Glands
[6] = IC50 ^125 I-CCK Brain, guinea pig cerebral cortex, ^125 I-CCK-33, 25° C., 2 hours
[7] = guinea pig cerebral cortex, ^125 I-CCK-33, 25° C., 2 hours; read-out: IC50 ^125 I-CCK Brain
[8] = IC50 ^125 I-Gastrin Gastric Glands

Row | SMILES | IC50 (CCK receptor (pancreas); [3]) [nM] | IC50 [1, 4] [nM] | IC50 [2, 5] [nM] | IC50 [1, 6] [nM] | IC50 (CCK receptor (pancreas); IC50 ^125 I-CCK Pancreas) [nM] | IC50 [1, 7] [nM] | IC50 [2, 8] [nM]
1 | CN1C(=O)[C@@H](NC(=O)c2ccccc2Cl)N=C(c2ccccc2)c2ccccc21 [Example 150, 3(S)-(-)-3-(2-Chlorobenzoylamino)-1,3-dihydro-1-methyl-5-phenyl-2H-1,4-benzodiazepin-2-one] | 1700 | 83000 | 130000 | – | – | – | –
2 | CN1C(=O)[C@H](NC(=O)c2ccccc2Cl)N=C(c2ccccc2)c2ccccc21 [Example 151, 3(R)-(+)-3-(2-Chlorobenzoylamino)-1,3-dihydro-1-methyl-5-phenyl-2H-1,4-benzodiazepin-2-one] | 11000 | 22000 | 7500 | – | – | – | –
3 | CN1C(=O)[C@@H](NC(=O)c2cccc(Br)c2)N=C(c2ccccc2F)c2ccccc21 [Example 154, 3(S)-(+)-3-(3-Bromobenzoylamino)-1,3-dihydro-5-(2-fluorophenyl)-1-methyl-2H-1,4-benzodiazepin-2-one] | 3.5 | – | 500 | 3500 | – | – | –
4 | CN1C(=O)[C@@H](NC(=O)c2ccc(Br)cc2)N=C(c2ccccc2F)c2ccccc21 [Example 156, 3(S)-(+)-3-(4-Bromobenzoylamino)-1,3-dihydro-5-(2-fluorophenyl)-1-methyl-2H-1,4-benzodiazepin-2-one] | – | – | 680 | 4000 | 3.5 | – | –
5 | CN1C(=O)[C@@H](NC(=O)c2ccc(C(C)(C)C)cc2)N=C(c2ccccc2F)c2ccccc21 [Example 157, 3(S)-(+)-3-(4-t-Butylbenzoylamino)-1,3-dihydro-5-(2-fluorophenyl)-1-methyl-2H-1,4-benzodiazepin-2-one] | 19 | – | 2400 | – | – | 8000 | –
6 | CN1C(=O)[C@@H](NC(=O)c2ccc(I)cc2)N=C(c2ccccc2F)c2ccccc21 [Example 159, 3(S)-(+)-1,3-Dihydro-5-(2-fluorophenyl)-3-(4-iodobenzoylamino)-1-methyl-2H-1,4-benzodiazepin-2-one] | – | – | 530 | 3000 | 3.4 | – | –
7 | CN1C(=O)[C@@H](NC(=O)c2ccc(C#N)cc2)N=C(c2ccccc2F)c2ccccc21 [Example 162, 3(S)-(+)-3-(4-Cyanobenzoylamino)-1,3-dihydro-5-(2-fluorophenyl)-1-methyl-2H-1,4-benzodiazeoin-2-one] | 43 | – | 9000 | 31000 | – | – | –
8 | CN1C(=O)[C@H](NC(=O)c2cccc(I)c2)N=C(c2ccccc2F)c2ccccc21 [Example 168, 3(R)-(-)-1,3-Dihydro-5-(2-fluorophenyl)-3-(3-iodobenzoylamino)-1-methyl-2H-1,4-benzodiazepin-2-one] | 15 | – | 2000 | – | – | 2400 | –
9 | CN1C(=O)[C@H](NC(=O)c2ccccc2I)N=C(c2ccccc2F)c2ccccc21 [Example 169, 3(R)-(+)-1,3-Dihydro-5-(2-fluorophenyl)-3-(2-iodobenzoylamino)-1-methyl-2H-1,4-benzodiazepin-2-one] | 58000 | – | 4400 | 3800 | – | – | –
10 | CN1C(=O)[C@@H](NC(=O)c2ccccc2I)N=C(c2ccccc2F)c2ccccc21 [Example 170, 3(S)-(-)-1,3-Dihydro-5-(2-fluorophenyl)-3-(2-iodobenzoylamino)-1-methyl-2H-1,4-benzodiazepin-2-one] | 800 | – | 11000 | 45000 | – | – | –
11 | CN1C(=O)[C@H](NC(=O)c2ccccc2Cl)N=C(c2ccccc2F)c2ccccc21 [Example 172, 3(R)-(+)-3-(2-Chlorobenzoylamino)-1,3-dihydro-5-(2-fluorophenyl)-1-methyl-2H-1,4-benzodiazepin-2-one] | 3400 | – | – | 16000 | – | – | 3700
12 | O=C(N[C@H]1N=C(c2ccccc2)c2ccccc2NC1=O)c1cc2ccccc2[nH]1 [Example 187, 3(S)-(2-Indolecarbonyl)amino-1,3-dihydro-5-phenyl-2H-1,4,-benzodiazepin-2-one] | – | – | – | 1300 | 3 | – | 5300
13 | CC(C)C(=O)N[C@H]1N=C(c2ccccc2)c2ccccc2N(C)C1=O [Example 189, (S)-N-(2,3-Dihydro-1-methyl-2-oxo-5-phenyl-1H-1,4-benzodiazepin-3-yl)-2-methylpropanamide] | 1100 | – | – | > 100000 | – | – | 73000
14 | CC(C)CC(=O)N[C@H]1N=C(c2ccccc2)c2ccccc2N(C)C1=O [Example 190, (S)-N-(2,3-Dihydro-1-methyl-2-oxo-5-phenyl-1H-1,4-benzodiazepin-3-yl)-3-methylbutanamide] | – | – | 130000 | – | 780 | > 100000 | –
15 | CN1C(=O)[C@@H](NC(=O)C2CCCCC2)N=C(c2ccccc2)c2ccccc21 [Example 191, (S)-N-(2,3-Dihydro-1-methyl-2-oxo-5-phenyl-1H-1,4-benzodiazepin-3-yl)-cyclohexanecarboxamide] | 800 | – | > 100000 | – | – | > 100000 | –
16 | CN1C(=O)[C@@H](NC(=O)C(C)(C)C)N=C(c2ccccc2)c2ccccc21 [Example 193, (S)-N-(2,3-Dihydro-1-methyl-2-oxo-5-phenyl-1H-1,4-benzodiazepin-3-yl]-2,2-dimethylpropanamide] | 1600 | – | – | > 100000 | – | – | 13000
17 | CCOC(=O)CN1C(=O)C(NC(=O)Nc2ccc(Cl)cc2)N=C(c2ccccc2F)c2ccccc21 (stereo not drawn) [Example 194, 3-((((4-Chlorophenyl)amino)carbonyl)amino)-5-(2-fluorophenyl)-2,3-dihydro-2-oxo-1H-1,4-benzodiazepin-1-acetic acid ethyl ester] | 220 | – | 4 | – | – | 1.2 | –
18 | CCOC(=O)CN1C(=O)C(NC(=O)NC(C)c2ccccc2)N=C(c2ccccc2F)c2ccccc21 (stereo not drawn) [Example 195, 5-(2-Fluorophenyl)-2,3-dihydro-2-oxo-((((1-phenylethyl)amino)carbonyl)amino)-1H-1,4-benzodiazepine-1-acetic acid ethyl ester] | – | – | 400 | – | 4800 | > 100 | –
19 | CN1C(=O)C(NC(=O)c2ccc(Cl)cc2N)N=C(c2ccccc2)c2ccccc21 (stereo not drawn) [Example 196, 3-N-(2,3-Dihydro-1-methyl-2-oxo-5-phenyl-1H-1,4-benzodiazepine-3-yl)-2-amino-4-chlorobenzamide] | 0.9 | – | – | 2400 | – | – | 1900
20 | CN1C(=O)C(C(=O)Nc2ccc(Cl)cc2)N=C(c2ccccc2)c2ccccc21 (stereo not drawn) [Example 197, N-(4-Chlorphenyl)-2,3-dihydro-1-methyl-2-oxo-5-phenyl-1H-1,4-benzodiazepine-3-carboxamide] | – | – | 10000 | – | 1900 | 5900 | –
21 | CN1C(=O)C(Cc2cn(C)c3ccccc23)N=C(c2ccccc2)c2ccccc21 (stereo not drawn) [Example 200, 1,3-Dihydro-1-methyl-3-((1-methyl-1H-indol-3-yl)methyl)-5-phenyl-2H-1,4-benzodiazepin-2-one] | – | – | 67000 | – | 100 | 63000 | –
22 | O=C(O)CN1C(=O)C(NC(=O)Nc2ccc(Cl)cc2)N=C(c2ccccc2)c2ccccc21 (stereo not drawn) [Example 202, 3-((((4-Chlorophenyl)amino)carbonyl)amino)-2,3-dihydro-2-oxo-5-phenyl-1H-1,4-benzodiazepine-1-acetic acid] | 56 | – | 120 | – | – | 72 | –
23 | CN1C(=O)[C@@H](NC(=O)c2ccc(C(F)(F)F)cc2)N=C(c2ccccc2)c2ccccc21 [Example 203, (S)-N-(2,3-Dihydro-1-methyl-2-oxo-5-phenyl-1H-1,4-benzodiazepin-3-yl)-4-(trifluoromethyl)-benzamide] | 1.3 | – | 6200 | 4600 | – | – | –
